# ± gives the expanded uncertainty stated by the source.
# Legend:
# [1] = 298.2 K; 101.33 kPa; Liquid; Vibrating tube method
# [2] = refractive index (Na D-line) (dimensionless); conditions: 298.2 K; 101.33 kPa; Liquid; Standard Abbe refractometry
SMILES,mass density [1] [kg/m3],refractive index [2]
CCCC(=O)O [butanoic acid],952.68 ± 0.23,1.3977 ± 0.0008
CCCCCO [pentan-1-ol],810.92 ± 0.24,1.4073 ± 0.0008
CCCCO [butan-1-ol],805.6 ± 0.24,1.3968 ± 0.0008
O [water],,1.3325 ± 0.0008
CC(C)CCO [3-methylbutan-1-ol],809.05 ± 0.4,1.4085 ± 0.0008

# — the NIST ThermoML archive (doi:10.1016/j.jct.2013.11.028)
